In US6420406B1, “Triazolyl disulphides” (Bayer Aktiengesellschaft, priority 1996, dated 2002):

What was measured:
Type in all cases: in vivo
Podosphaera leucotricha = assay: Podosphaera test (apple)/protective; conditions: protective, application rate 50 g/ha, evaluation 10 days after inoculation, 100% = no infection
Method: (§1) Podosphaera test (apple)/protective Solvent: 47 parts by weight of acetone Emulsifier: 3 parts by weight of alkylaryl polyglycol ether To product a suitable preparation of active compound, 1 part by weight of active compound is mixed with the stated amounts of solvent and emulsifier, and the concentrate is diluted with water to the desired concentration. To test for protective activity, young plants are sprayed with the preparation of active compound at the stated application rate. After the spray coating has dried on, the plants are inoculated with an aqueous spore suspension of the causative organism of apple mildew Podosphaera leucotricha. The plants are then placed in a greenhouse at 23° C. and at a relative atmospheric humidity of approximately 75%.

Sphaerotheca fuliginea = assay: Sphaerotheca test (cucumber)/protective; conditions: protective, application rate 50 g/ha, evaluation 10 days after inoculation, 100% = no infection
Method: as §1, with “Sphaerotheca” for “Podosphaera”, “(cucumber/protective” for “(apple)/protective”, “produce” for “product”, “Sphaerotheca fuliginea.” for “the causative organism of apple mildew Podosphaera leucotricha.”, “subsequently” for “then”, “23 to 24°” for “23°”

[1] = tested on: W strain of Pseudocercosporella herpotrichoides; assay: Pseudocercosporella herpotrichoides test; W strain (wheat)/protective; conditions: protective, application rate 250 g/ha, evaluation 21 days after inoculation, 100% = no infection
Method: Pseudocercosporella herpotrichoides test; W strain (wheat/protective Solvent: 10 parts by weight of N-methyl-pyrrolidone Emulsifier: 0.6 part by weight of alkylaryl polyglycol ether To product a suitable preparation of active compound, 1 part by weight of active compound is mixed with the stated amounts of solvent and emulsifier, and the concentrate is diluted with water to the desired concentration. To test for protective activity, young plants are sprayed with the preparation of active compound at the stated application rate. After the spray coating has dried on, the plants are inoculated at the base of the stem with spores of the W strain of Pseudocercosporella herpotrichoides. The plants are placed in a greenhouse at a temperature of approximately 10° C. and a relative atmospheric humidity of approximately 80%.

[2] = tested on: Erysiphe graminis f.sp. hordei; assay: Erysiphe test (barley)/protective; conditions: protective, application rate 250 g/ha, evaluation 7 days after inoculation, 100% = no infection
Method: (§2) Erysiphe test (barley)/protective Solvent: 10 parts by weight of N-methyl-pyrrolidone Emulsifier: 0.6 parts by weight of alkylaryl polyglycol ether To prepare a suitable preparation of active compound, 1 part by weight of active compound if mixed with the stated amounts of solvent and emulsifier, and the concentrate is diluted with water to the desired concentration. To test for protective activity, young plants are sprayed with the preparation of active compound at the stated application rate. After the spray coating has dried on, the plants are dusted with spores of Erysiphe graminis f.sp. hordei. The plants are placed in a greenhouse at a temperature of approximately 20° C. and a relative atmospheric humidity of approximately 80%, in order to promote the development of mildew pustules.

Venturia inaequalis = assay: Venturia test (apple)/protective; conditions: protective, application rate 50 g/ha, evaluation 12 days after inoculation, 100% = no infection
Method: as §1, with “Venturia” for “Podosphaera”, “produce” for “product”, “conidia” for “spore”, “scab Venturia inaequalis and then remain placed at 20° C. and a relative atmospheric humidity of approximately 70% for 1 day.” for “mildew Podosphaera leucotricha.”, “20°” for “23°”, “70%.” for “75%.”

[3] = tested on: Erysiphe graminis f.sp. tritci; assay: Erysiphe test (wheat)/protective; conditions: protective, application rate 250 g/ha, evaluation 7 days after inoculation, 100% = no infection
Method: as §2, with “test (wheat)/protective” for “test (barley)/protective”, “compound is” for “compound if”, “graminis […].” for “graminis f.sp. hordei.”

Puccinia recondita = assay: Puccinia test (wheat)/curative; conditions: curative, sprayed 48 hours after inoculation, application rate 250 g/ha, evaluation 10 days after inoculation, 100% = no infection
Method: Puccinia test (wheat/curative Solvent: 10 parts by weight of N-methyl-pyrrolidone Emulsifier: 0.6 part by weight of alkylaryl polyglycol ether To product a suitable preparation of active compound, 1 part by weight of active compound is mixed with the stated amounts of solvent and emulsifier, and the concentrate is diluted with water to the desired concentration. […] 48 hours after the inoculation the plants are sprayed with the preparation of active compound at the stated application rate. The plants are placed in a greenhouse at a temperature of approximately 20° C. and a relative atmospheric humidity of approximately 80%, in order to promote the development of rust pustules.

[4] = tested on: Erysiphe graminis f.sp. hordei; assay: Erysiphe test (barley)/curative; conditions: curative, sprayed 48 hours after inoculation, application rate 250 g/ha, evaluation 7 days after inoculation, 100% = no infection
Method: Erysiphe Test (barley)/curative Solvent: 10 parts by weight of N-methyl-pyrrolidone Emulsifier: 0.6 parts by weight of alkylaryl polyglycol ether To product a suitable preparation of active compound 1 part by weight of active compound is mixed with the stated amounts of solvent and emulsifier, and the concentrate is diluted with water to the desired concentration. To test for curative activity, young plants are dusted with spores of Erysiphe graminis f.sp. hordei. 48 hours after the incubation, the plants are sprayed with the preparation of active compound at the stated application rate. The plants are placed in a greenhouse at a temperature of approximately 20° C. and a relative atmospheric humidity of approximately 80%, in order to promote the development of mildew pustules.

Fusarium graminearum = conditions: barley, protective, application rate 250 g/ha, evaluation 4 days after inoculation; 100% = no infection

Row | Compound | Efficacy in % (Podosphaera leucotricha) [%] | Efficacy in % (Sphaerotheca fuliginea) [%] | Efficacy in % [1] [%] | Efficacy in % [2] [%] | Efficacy in % (Venturia inaequalis) [%] | Efficacy in % [3] [%] | Efficacy in % (Puccinia recondita) [%] | Efficacy in % [4] [%] | Efficacy in % (Fusarium graminearum) [%]
1 | Fc1ccc(C2(Cn3ncnc3SSc3ncnn3CC3(c4ccc(F)cc4)OC3c3ccccc3Cl)OC2c2ccccc2Cl)cc1 (centres unmarked) [Example I-2] | 96 | 92 |  |  |  |  |  |  | 
2 | OC(Cc1ccccc1Cl)(Cn1ncnc1SSc1ncnn1CC(O)(Cc1ccccc1Cl)C1(Cl)CC1)C1(Cl)CC1 (centres unmarked) [Example I-1, di-{1-[2-(1-chlorocyclopropyl)-3-(2-chloro-phenyl)-2-hydroxy-propyl-1]-1,2,4-triazol-5-yl} disulphide] | 100 | 100 | 100 | 100 | 100 | 100 | 100 | 100 | 100
